The results in this text go back to BindingDB's records for doi:10.7270/Q2TX3CSC (Vanderbilt Screening Center for GPCRs, Ion Channels and …, 2009).

The target in the first assay is T1, Solute carrier family 12 member 5 (Homo sapiens, UniProt Q9H2X9).
T1 sequence (Q9H2X9 whole entry): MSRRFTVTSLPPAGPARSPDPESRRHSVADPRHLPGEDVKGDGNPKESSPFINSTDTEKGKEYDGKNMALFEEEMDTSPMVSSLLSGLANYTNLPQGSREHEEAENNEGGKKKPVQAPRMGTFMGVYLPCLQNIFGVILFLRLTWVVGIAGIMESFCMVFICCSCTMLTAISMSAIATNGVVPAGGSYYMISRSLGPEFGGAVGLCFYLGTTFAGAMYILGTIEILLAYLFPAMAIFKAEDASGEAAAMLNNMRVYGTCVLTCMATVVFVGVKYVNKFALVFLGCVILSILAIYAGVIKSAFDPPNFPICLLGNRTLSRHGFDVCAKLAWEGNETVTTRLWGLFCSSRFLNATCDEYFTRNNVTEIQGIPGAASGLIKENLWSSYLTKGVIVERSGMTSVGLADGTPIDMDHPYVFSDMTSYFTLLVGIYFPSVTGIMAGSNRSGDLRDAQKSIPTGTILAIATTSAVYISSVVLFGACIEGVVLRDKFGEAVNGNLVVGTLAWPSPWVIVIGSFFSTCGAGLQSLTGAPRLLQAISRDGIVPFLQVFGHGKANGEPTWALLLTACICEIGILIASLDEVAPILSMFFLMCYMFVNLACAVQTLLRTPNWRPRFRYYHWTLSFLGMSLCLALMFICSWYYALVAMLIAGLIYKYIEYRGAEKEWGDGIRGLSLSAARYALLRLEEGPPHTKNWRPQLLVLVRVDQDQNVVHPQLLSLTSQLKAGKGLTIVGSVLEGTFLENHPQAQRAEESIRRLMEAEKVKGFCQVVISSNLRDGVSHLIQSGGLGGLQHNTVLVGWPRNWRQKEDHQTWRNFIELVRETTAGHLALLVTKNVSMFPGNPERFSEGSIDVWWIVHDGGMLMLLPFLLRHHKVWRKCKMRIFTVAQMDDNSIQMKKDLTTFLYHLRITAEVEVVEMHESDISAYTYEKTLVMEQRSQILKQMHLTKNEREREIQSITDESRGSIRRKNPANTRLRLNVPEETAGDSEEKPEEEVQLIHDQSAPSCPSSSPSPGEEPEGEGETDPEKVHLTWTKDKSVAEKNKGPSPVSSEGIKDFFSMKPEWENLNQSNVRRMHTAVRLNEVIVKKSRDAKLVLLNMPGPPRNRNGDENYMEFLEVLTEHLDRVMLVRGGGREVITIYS
Kind of assay: concentration-response of KCC2 transport modulators – cell-based, HEK293 KCC2, FluoZin-2 fluorescence, dose response (AID 1736).
Conditions: not given
In turn, `COc1ccc(-c2nnc(S/C(=C/c3ccc(Cl)cc3)C(=O)O)o2)cc1` [(E)-3-(4-chlorophenyl)-2-[[5-(4-methoxyphenyl)-1,3,4-oxadiazol-2-yl]sulfanyl]prop-2-enoic acid] had an EC50 of 0.287 µM. That is a sub-micromolar value. `O=C(Cc1csc(-c2ccccc2)n1)NCc1ccc(F)cc1` [MLS000336311] showed an EC50 of 3.59 µM. The molecule `S=C(NCCc1ccccc1)NN=Cc1cccc(Cl)c1Cl` [1-[(2,3-dichlorobenzylidene)amino]-3-phenethyl-thiourea] showed an EC50 of 47.6 µM. Same read-out and setting: to `O=C(c1ccccc1SCc1ccc(F)cc1)N1CCOCC1` [MLS000712999] belongs 6.48 µM; to `O=C(CSc1nnc(Cc2ccccc2)o1)c1ccc(F)cc1` [1-(4-fluorophenyl)-2-[[5-(phenylmethyl)-1,3,4-oxadiazol-2-yl]sulfanyl]ethanone], 2.39 µM; to `CCN(CC)S(=O)(=O)c1ccc(NC(=O)CSc2ncnc3ccccc23)cc1` [MLS000393282], 1.1 µM. In turn, `CC1Cc2ccccc2N1C(=O)CSc1nnc(CNc2ccccc2)o1` (stereo not drawn) [1-(2-Methyl-2,3-dihydro-indol-1-yl)-2-(5-phenylaminomethyl-[1,3,4]oxadiazol-2-ylsulfanyl)-ethanone] displayed an EC50 of 0.941 µM. `COc1ccc(S(=O)(=O)N(CCc2ccccc2)CC(=O)O)cc1Cl` [2-[(3-chloranyl-4-methoxy-phenyl)sulfonyl-(2-phenylethyl)amino]ethanoic acid] returned a concentration for a half-maximal effect (EC50) of 7.63 µM. Molecule `Cc1[nH]c2ccccc2c1Cc1n[nH]c(=S)n1C` had an EC50 of 6.59 µM. `COc1ccccc1C(=O)NC1CCN(C(=S)NCCc2ccccc2)CC1` [2-methoxy-N-[1-(2-phenylethylcarbamothioyl)piperidin-4-yl]benzamide] registered an EC50 of 6.66 µM. Molecule `O=C(c1ccc(S(=O)(=O)c2cccc(Cl)c2)c([N+](=O)[O-])c1)N1CCN(c2ccccn2)CC1` [1-{4-[(3-chlorophenyl)sulfonyl]-3-nitrobenzoyl}-4-pyridin-2-ylpiperazine] displayed an EC50 of 6.85 µM. Consider `O=C(NN1C(=O)/C(=C/c2nc3ccccc3[nH]2)SC1=S)c1ccccc1Cl` [N-{5-[1-(1H-Benzoimidazol-2-yl)-meth-(Z)-ylidene]-4-oxo-2-thioxo-thiazolidin-3-yl}-2-chloro-benzamide], for which the EC50 was determined as 0.0822 µM. Compared with the last molecule, the EC50 is about 83-fold lower. Consider `CC1CCN(C(=O)CSc2ccc(-c3ccc(F)cc3)nn2)CC1` [2-[6-(4-Fluoro-phenyl)-pyridazin-3-ylsulfanyl]-1-(4-methyl-piperidin-1-yl)-ethanone], for which the EC50 turned out to be 2.66 µM. This EC50 is about 32-fold higher than that of the molecule before. `CSc1ccccc1N=C(S)Nc1ccc(S(N)(=O)=O)cc1` [1-(2-methylsulfanylphenyl)-3-(4-sulfamoylphenyl)thiourea] yielded an EC50 of 38.4 µM. Against the preceding molecule, the EC50 is about 14-fold higher. As for `COc1cccc(CNC(=O)CSc2ccc(-c3cccs3)nn2)c1` [MLS000621194], the EC50 was 19.5 µM. Take `Cc1ccc(C(=O)Nc2nc(=O)n(C(=O)c3ccccc3Cl)s2)cc1` [MLS000540480]: a half-maximal effect (EC50) was put at 3.72 µM.

For the molecule `O=C(OCC(=O)N1CCN(C(=O)c2ccco2)CC1)c1sc2ccccc2c1Cl` [3-chloro-1-benzothiophene-2-carboxylic acid [2-[4-[2-furanyl(oxo)methyl]-1-piperazinyl]-2-oxoethyl] ester], the concentration giving a half-maximal response (EC50) came out at 0.478 µM. On to `CC(C)N1C(=O)S/C(=C/c2ccccc2OCc2ccc(C(=O)O)cc2)C1=O`, for which it took 1.48 µM to reach a half-maximal effect (EC50). `O=C(O)CCN(Cc1ccccc1)S(=O)(=O)c1c(Cl)cccc1Cl` [3-[(2,6-dichlorophenyl)sulfonyl-(phenylmethyl)amino]propanoic acid] came in with an EC50 of 59.2 µM. For `O=C(CNC(=O)/C(=C/c1ccccc1)NC(=O)c1ccc(Br)cc1)OCc1ccccc1` [(phenylmethyl) 2-[[(Z)-2-[(4-bromophenyl)carbonylamino]-3-phenyl-prop-2-enoyl]amino]ethanoate], the EC50 turned out to be 1.15 µM.

`O=C(Cn1cnc2c(nnn2Cc2ccc(F)cc2)c1=O)NCc1ccc2c(c1)OCO2` [2-[3-(4-fluorobenzyl)-7-keto-triazolo[4,5-d]pyrimidin-6-yl]-N-piperonyl-acetamide] returned a 50% effective concentration (EC50) of 1.69 µM. As for `Cc1ccc(C(=O)O)cc1-c1ccc(C=C2NC(=O)N(c3ccccc3)C2=O)o1` [3-[5-[(E)-(2,5-dioxo-1-phenylimidazolidin-4-ylidene)methyl]furan-2-yl]-4-methylbenzoic acid], the half-maximal effective concentration (EC50) came to 14.8 µM.

As for `COc1ccc(NC(=S)NC(N)=Nc2nc(C)c3ccccc3n2)cc1` [(1E)-1-[amino-[(4-methyl-2-quinazolinyl)amino]methylidene]-3-(4-methoxyphenyl)thiourea], the EC50 came to 4.61 µM. Compared with the last molecule, the EC50 is about 3.2-fold lower.

In turn, `Cc1ccc2c(c1)nnn2C1CCN(S(=O)(=O)c2cccc(S(=O)(=O)N(C)C)c2)CC1` [MLS000033642] registered an EC50 of 3.38 µM. `COc1cc(C=NN(C)c2ccccc2)ccc1O` returned an EC50 of 23.8 µM. This EC50 is about 7-fold higher than that of the molecule before. Still for that read-out and setting: the figure for `O=C(CCSCCc1ccccn1)Nc1ccc(Cc2ccncc2)cc1` [3-(2-pyridin-2-ylethylsulfanyl)-N-[4-(pyridin-4-ylmethyl)phenyl]propanamide] is 9.8 µM. On the same count and under the same terms, to `CCc1ccc(OCCNC(=O)c2ccccc2SCc2ccc(F)cc2)cc1` [MLS000577152] belongs 1.38 µM; to `O=C(NCc1ccc2c(c1)OCO2)c1ccc(COc2cc(Cl)ccc2Cl)o1` [5-[(2,5-dichlorophenoxy)methyl]-N-piperonyl-2-furamide], 6.14 µM. Regarding `O=C(O)/C=C/c1cn(Cc2ccccc2Cl)nc1-c1ccccc1` [(E)-3-[1-(2-chlorobenzyl)-3-phenyl-pyrazol-4-yl]acrylic acid], the concentration for a half-maximal effect (EC50) was 3.26 µM. Turning to `COc1ccccc1N1CCN(C(=S)NC(=O)/C=C/c2ccccc2)CC1` [(E)-N-[4-(2-Methoxy-phenyl)-piperazine-1-carbothioyl]-3-phenyl-acrylamide], the half-maximal effective concentration (EC50) worked out at 20 µM. Compared with the last molecule, the EC50 is about 6.1-fold higher.

In the case of `O=C(NCC1CCCN(C(=O)c2cccnc2)C1)c1ccc(-c2ccccc2)cc1` (stereo not drawn) [4-phenyl-N-[(1-pyridin-3-ylcarbonylpiperidin-3-yl)methyl]benzamide], the EC50 worked out at 2.85 µM. The molecule `COc1ccc(S(=O)(=O)N2CCC(C(=O)N3CCc4ccccc4C3)CC2)cc1C` [2-({1-[(4-methoxy-3-methylphenyl)sulfonyl]-4-piperidinyl}carbonyl)-1,2,3,4-tetrahydroisoquinoline] gave a concentration for a half-maximal effect (EC50) of 5.4 µM. In the case of `CN(C)S(=O)(=O)c1ccc(Cl)c(C(=O)Nc2nc3ccccc3[nH]2)c1` [SMR000370637], the response was half-maximal at 2.11 µM (EC50). This EC50 lies about 2.6-fold lower than the previous one. On the same count and under the same terms, the figure for `COc1ccccc1NC(=S)NNC1=c2cc(Br)ccc2=NC1=O` [MLS000778253] is 0.71 µM.

Molecule `Cc1ccc(-c2csc(NC(=O)CCNC(=O)c3ccccc3Cl)n2)cc1` [2-chloranyl-N-[3-[[4-(4-methylphenyl)-1,3-thiazol-2-yl]amino]-3-oxidanylidene-propyl]benzamide] gave a concentration giving a half-maximal response (EC50) of 2.49 µM. The same measure, in the same setting: the figure for `N#CC(C(=O)COc1ccccc1)c1nc2ccccc2s1` (stereo not drawn) [(2Z)-2-(3H-1,3-benzothiazol-2-ylidene)-3-keto-4-phenoxy-butyronitrile] is 8.56 µM; for `COc1cc(C(=S)N2CCOCC2)cc(OC)c1OC(=O)Cc1ccccc1` [(2,6-dimethoxy-4-morpholin-4-ylcarbothioyl-phenyl) 2-phenylethanoate] it is 0.81 µM; for `O=C(OCC(=O)N1CCc2ccccc2C1)c1ccc(N2CCOCC2)c([N+](=O)[O-])c1` [4-(4-morpholinyl)-3-nitrobenzoic acid [2-(3,4-dihydro-1H-isoquinolin-2-yl)-2-oxoethyl] ester] it is 5.37 µM.

The same assay, now with this note: inactive by the depositor's call.
On to `COc1ccc(-c2nc(C[S+]([O-])CC(=O)N3CCc4ccccc4C3)c(C)o2)cc1` (stereo not drawn) [1-(3,4-dihydro-1H-isoquinolin-2-yl)-2-[[2-(4-methoxyphenyl)-5-methyl-1,3-oxazol-4-yl]methylsulfinyl]ethanone], for which the concentration for a half-maximal effect (EC50) is 1410 µM. In turn, `COc1ccc(C(=O)NC(=S)N2CCN(c3ccc([N+](=O)[O-])cc3)CC2)cc1` [4-methoxy-N-[4-(4-nitrophenyl)piperazin-1-yl]carbothioyl-benzamide] came in with an EC50 of 0.178 µM. With `O=C(/C=C/c1ccccc1)Nc1scc(-c2ccccc2)c1C(=O)O` [2-[[(E)-1-oxo-3-phenylprop-2-enyl]amino]-4-phenyl-3-thiophenecarboxylic acid], the EC50 stood at 0.134 µM.

For `CSc1sc(-c2nnc(S)n2C)c2c1C=CCC2` [4-methyl-3-[3-(methylthio)-6,7-dihydro-2-benzothiophen-1-yl]-1H-1,2,4-triazole-5-thione], the EC50 was found to be 15.7 µM. Consider `S=c1[nH]nc(-c2cccc(Cl)c2)n1N=Cc1ccco1` [3-(3-chlorophenyl)-4-(furan-2-ylmethylideneamino)-1H-1,2,4-triazole-5-thione], for which the midpoint of the response, the EC50, lay at 60.1 µM.

Broadly, the EC50 is the concentration that produces a half-maximal response. A lower EC50 goes with a more potent agent.
